For the data set the following is noted: patient three.
Where [1] appears, read: single subcutaneous HEP1 injection in the abdominal wall.

Like-named read-outs stand apart in the source and are kept apart here. Residues, ends and D or L forms follow the SMILES beside them.

Description: Oral administration of HEP1 solution containing 10 mg HEP1 was started on day 2 of the trial and continued until day 22. Further Blood samples were taken for analysis on day 7, day 14, day 21 and day 28 of the trial (7 days after the last dose of HEP1).

For the compound `CC(C)[C@H](NC(=O)[C@@H](NC(=O)[C@H](CCC(=O)O)NC(=O)[C@H](CCCNC(=N)N)NC(=O)[C@H](CCCNC(=N)N)NC(=O)[C@H](CCCCN)NC(=O)[C@H](CCCCN)NC(=O)[C@H](CCC(=O)O)NC(=O)[C@@H](N)[C@@H](C)O)[C@@H](C)O)C(=O)N[C@@H](CCC(=O)O)C(=O)N[C@@H](CCCNC(=N)N)C(=O)N[C@@H](CCC(=O)O)C(=O)N[C@@H](CCCCN)C(=O)N[C@@H](CCC(=O)O)C(=O)O` [HEP1, NH2 ThrGluLysLysArgArgGluThrValGluArgGluLysGluCOOH] (H-TEKKRRETVEREKE-OH), the adverse reactions result (oral HEP1 10 mg daily day 2-22) is reported as “no adverse reactions”. Under setting [1], the adverse reactions result was “no other adverse reactions” and the “duration of stinging sensation after injection” value was “approximately 15 minutes”.

The record behind these values is patent US5773573A, “HIV peptides” (priority 1994, dated 1998).
